In patent US20240208961A1, “EIF4E INHIBITORS AND USES THEREOF” (PIC Therapeutics, Inc., priority 2022, published 2024):

Tests used:
[1] = tested on: MCL-1 protein; experiment: MCL-1 protein (eIF4E regulated) levels in multiple myeloma cell line MM.1R (FIG. 11B); type: cell-based; conditions: MM.1R cells, 2 hours
[2] = tested on: ZR-75-1 tumor; experiment: ZR-75-1 subQ CDX model; type: in vivo; conditions: female BALB/c nude mice, 50 mg/kg, PO, QW, FIG. 14
Procedure: Female BALB/c nude mice were inoculated with estrogen tablets (0.36 mg/pellet, 60 days to release) 48 hours before cell inoculation. The xenograft model was established by implantation of […] of ZR-75-1 tumor cell suspension (5×10^6 cells/mouse, with 50% Matrigel) subcutaneously into the right subaxillary of female BALB/c nude mice aged 6-8 weeks. When the average tumor volume reached 153.10 mm^3, the tumor-bearing mice were randomized into treatment groups. The groups were treated as follows: Group 1: vehicle, PO, QW; Group 2: Tamoxifen 10 mg/kg, PO, QD; Group 3: Compound I-11 50 mg/kg, PO, QW.
Cell culture: The ZR-75-1 (breast, ductal carcinoma) cell was purchased from (ATCC® CRL-1500™). The base medium for this cell line ATCC-formulated RPMI-1640 Medium. To make the complete growth medium, the base medium was supplemented with 10% heat inactivated FBS and 1% PS, maintained at 37° C. in an atmosphere containing 5% CO2 in air. The tumor cells were routinely subcultured at a ratio of 1:1.5 to 1:3 every 3-6 days. Cell concentration at harvest time was 5.39×10^7 cells/mL and cell viability was 94.3% before inoculation.
Tumor inoculation: BALB/c nude mice were used in this study. Each mouse was inoculated with estrogen tablets 48 hours before cell inoculation (0.3 mg/pellet, 60 days to release). […]

[3] = tested on: MM.1S cells; experiment: 5 day viability assay in MM.1S cells, I-11 and dexamethasone (Example 7); type: cell-based
Procedure: (§1) Compound I-11 was studied in the context of dexamethasone combinations, which is used clinically in early Multiple Myeloma prior to the emergence of steroid resistance and is a common backbone therapy. The MM.1S cell line is a steroid sensitive line, and the MM.1R line is the corresponding cell line which has been driven to steroid resistance. The procedure for these studies was as follows:
(§2) Day 1: Cell Seeding and Compound Dosing
(§3) • Cells were seeded 2×10^5 in 96-well cell culture treated tissue culture plates: 87.5 μL/well; MM.1 S and MM.1R • A 5-fold serial dilution of each compound in DMSO (0-25 mM) was prepared in compound storage plates (stored at −80° C. if not to be used immediately). An 8-point curve was used for compound I-11, and a 6-point curve was used for dexamethasone (0-25 mM). • Cells were rinsed with 1% FBS Media and replaced with 87.5 μL media prior to dosing. • DMSO compound dilution series was diluted in 1% FBS media—2 μL compound in 123 μL media to give a 16× final concentration. Dosing across the plate columns 1-12 (compound I-11 0-400 μM), 6.25 μL 16× in media/well. Dosing down plate rows (columns 1-6 dexamethasone 0-400 μM), 6.25 μL 16× compound in media per well. • Cells were dosed with 12.5 μL for both compounds, with 2 replicates of dosing matrix per 96-well plate. Final volume cells and compound was 100 μL/well. • Media blank 100 μL/well×8 was set up. • All plates were incubated at 37° C.
(§4) Day 6: 5 Day Viability Assay
(§5) • Alamar Blue viability reagent was added (10 μL per well) and incubated for 3 hours at 37° C. prior to fluorescence detection (Ex560 nm/Em590 nm) on a Varioskan Lux multimode plate reader.

[4] = tested on: MM.1R cells; experiment: 5 day viability assay in MM.1R cells, I-11 and dexamethasone (Example 7); type: cell-based
Procedure: as §1, §2, §3, §4, §5

[5] = tested on: 4E-BP1; experiment: Hyperphosphorylation of 4E-BP1 in multiple myeloma cell line MM.1R (FIG. 11A); type: cell-based; conditions: MM.1R cells, 2 hours

Q: For `CC(C)Cc1sc(Nc2ncc(-c3cccs3)cc2C(=O)O)nc1C(C)(C)C` [Compound I-11], which “MCL-1 protein (eIF4E regulated) levels” value [1] is on record?
A: The value was “reduces”.

Q: What about the tumor size growth [2] of the same molecule?
A: Its tumor size growth is “reduced tumor size growth”.

Q: What about the IC50 ([3]; Homo sapiens, MM1.S, 120 h, MM.1S cells (steroid sensitive), 5 days, Alamar Blue, read-out: IC50 (μM), Viability Assessment (5 Days) in MM.1S Cells) of the same molecule?
A: The IC50 was 0.423 µM.

Q: And the “viability of MM.1S cells” value ([3]; MM.1S cells, FIG. 12)?
A: Its value is “significant decreases in viability”.

Q: What about the “impact on viability in combination with dexamethasone” value ([3]; MM.1S cells, dosing matrix I-11 x dexamethasone, FIG. 13) of the same molecule?
A: The value was “additive to dexamethasone”.

Q: What about the IC50 ([4]; 120 h, MM.1R cells (steroid resistant), 5 days, Alamar Blue, read-out: IC50 (μM), Viability Assessment (5 Days) in MM.1R Cells) of the same molecule?
A: The IC50 was 0.179 µM.

Q: What about the “viability of MM.1R cells” value ([4]; MM.1R cells, FIG. 12) of the same molecule?
A: Its value is “significant decreases in viability”.

Q: What about the “relative levels of hyperphospho-4E-BP1” value [5] of the same molecule?
A: The value was “significantly lowers relative levels of hyperphospho-4E-BP1”.
